Patent US11744819B2, “Antibiotic cannabinoid-terpene formulations” (priority 2019, dated 2023)
In brackets after ≈: the same amount, converted by molar mass. Read-outs that look alike come from different tables or passages of the source.

Experiments:
[1] = system: Streptococcus pyogenes ATCC 51878; assay: MIC determination; assay type: cell-based; details: ATCC51878
[2] = system: Staphylococcus epidermidis ATCC 12228; assay: MIC determination; assay type: cell-based; details: ATCC12228
[3] = system: Enterococcus faecium 33D3; details: for Fold reduction in daptomycin MIC in combination with the cannabinoid: E. faecium isolate 3303; for MIC: clinical enterococcal strain 3303
[4] = system: E. faecium clinical isolate 58C9 (vancomycin and daptomycin resistant); details: for Fold reduction in daptomycin MIC in combination with the cannabinoid: E. faecium isolate 58c9; for MIC: clinical enterococcal strain 58C9, vancomycin and daptomycin resistant
[5] = system: E. faecium clinical isolate 69C6 (vancomycin resistant); details: for Fold reduction in daptomycin MIC in combination with the cannabinoid: E. faecium isolate 69C6
[6] = system: E. faecium clinical isolate 55A6 (vancomycin and daptomycin resistant); details: for Fold reduction in daptomycin MIC in combination with the cannabinoid: E. faecium isolate 55a6
[7] = system: E. faecium clinical isolate 58C9 (vancomycin and daptomycin resistant); assay: microbe, parasite or virus in culture; details: Enterococcus faecium
[8] = system: Enterococcus faecalis; assay: MIC determination; assay type: cell-based
[9] = system: Mycobacterium tuberculosis H37Rv; assay: MIC determination (PrestoBlue); assay type: cell-based; details: Mycobacterium tuberculosis, H37RV
[10] = system: E. faecium strains 3303, 69C6, 58C9 and 55A6; assay: Kill curves (CFU by serial dilution); assay type: cell-based, Enterococcus faecium; details: for kinetics of E. faecium killing: at equal concentrations of CBD, CBG, or CBC; for kinetics of E. faecium killing / bactericidal activity (viability, CFU): FIG. 1; for bactericidal activity (viability, CFU): cannabinoid alone, 1x-4x MIC, planktonic E. faecium; for growth and CFU in combination with daptomycin: ½×MIC of cannabinoid with 1×-⅛×MIC of daptomycin, strains 3303, 58C9, 55A6
[11] = system: biofilms of E. faecium strain 3303; assay: Biofilm treatment (crystal violet mass, viable bacteria); assay type: cell-based, Enterococcus faecium; details: 48 h biofilms of strain 3303 treated 72 h; FIG. 4
Experimental: The data in FIG. 4 was generated by growing biofilms of E. faecium strain 3303 for 48 h without cannabinoids, then treating the biofilms with cannabinoids for 72 h. The mass of the biofilm was quantitated by crystal violet staining. Viable bacteria in the biofilm were quantitated by scrapping biofilm then counting the viable bacteria. As illustrated, CBO and CBG illustrate a surprising degree of antibiotic activity against the strain 3303 of E. faecium. Of note, CBC was bactericidal against planktonic Enterococci.

[12] = system: enterococci; details: MIC 4 mg/L; 6 mg/kg doses; enterococcal bacteremia; cited from earlier work

Row | SMILES | MIC ([1]; Streptococcus pyogenes) | MIC ([2]; Staphylococcus epidermidis) | Fold reduction in daptomycin MIC in combination with the cannabinoid [3] | Fold reduction in daptomycin MIC in combination with the cannabinoid [4] | Fold reduction in daptomycin MIC in combination with the cannabinoid [5] | Fold reduction in daptomycin MIC in combination with the cannabinoid [6] | MIC [7] | MIC [8] | MIC ([9]; Media 7H9, read-out: MIC) | MIC ([9]; Media PB, read-out: MIC) | kinetics of E. faecium killing [10] | bactericidal activity (viability, CFU) [10] | growth and CFU in combination with daptomycin [10] | inhibition of E. faecium biofilm growth [11] | also measured
1 | CCCCCc1cc(O)c2c(c1)OC(C)(CCC=C(C)C)C=C2 (stereo not drawn) [CBC, cannabichromene] | 1 µg/mL (≈ 3.18 µM) | 4 µg/mL (≈ 12.7 µM) | 128 Fold | 8 Fold | 32 Fold | 512 Fold | 1 µg/mL (≈ 3.18 µM) | 2 µg/mL (≈ 6.36 µM) | 8 µg/mL (≈ 25.4 µM) | 4 µg/mL (≈ 12.7 µM) | faster than for CBO | bactericidal | significantly inhibited growth of all strains and reduced CFU |  | 
2 | CCCCCc1cc(O)c(C/C=C(\C)CCC=C(C)C)c(O)c1 [CBG, cannabigerol] | 1 µg/mL (≈ 3.16 µM) | 2 µg/mL (≈ 6.32 µM) | 32 Fold | 64 Fold | 4 Fold | 4 Fold | 1 µg/mL (≈ 3.16 µM) | 1 µg/mL (≈ 3.16 µM) | 2 µg/mL (≈ 6.32 µM) | 2 µg/mL (≈ 6.32 µM) | faster than for CBO | bactericidal | significantly inhibited growth of all strains and reduced CFU | surprisingly effective at inhibiting E. faecium biofilm growth | 
3 | CCCCCCCCCC(=O)N[C@@H](Cc1c[nH]c2ccccc12)C(=O)N[C@H](CC(N)=O)C(=O)N[C@@H](CC(=O)O)C(=O)N[C@@H]1C(=O)NCC(=O)N[C@@H](CCCN)C(=O)N[C@@H](CC(=O)O)C(=O)N[C@H](C)C(=O)N[C@@H](CC(=O)O)C(=O)NCC(=O)N[C@H](CO)C(=O)N[C@@H]([C@H](C)CC(=O)O)C(=O)N[C@@H](CC(=O)c2ccccc2N)C(=O)O[C@@H]1C [Daptomycin, daptomycin, reference compound] |  |  |  |  |  |  |  |  |  |  |  |  |  |  | probability of attaining target pharmacokinetic parameters [12]: 1.5-5.5%; MIC [3]: 2 µg/mL (≈ 1.23 µM); MIC ([3]; listed as daptomycin): 1 µg/mL (≈ 0.617 µM); MIC [4]: 8 µg/mL (≈ 4.94 µM); MIC ([4]; listed as daptomycin): 4 µg/mL (≈ 2.47 µM); MIC ([5]; clinical enterococcal strain 69C6, vancomycin resistant): 1 µg/mL (≈ 0.617 µM); MIC ([6]; clinical enterococcal strain 55A6, vancomycin and daptomycin resistant): 8 µg/mL (≈ 4.94 µM); reduction in CFU ([10]; daptomycin alone at 1×MIC (growth inhibited)): no reduction in CFU; inhibition of growth ([10]; single agent at ½×MIC, all strains (3303, 58C9, 55A6)): effectively no inhibition of growth
4 | C=C(C)[C@@H]1CCC(C)=C[C@H]1c1c(O)cc(CCCCC)cc1O [CBD, cannabidiol, reference compound] |  |  |  |  |  |  | 1 µg/mL (≈ 3.18 µM) |  | 16 µg/mL (≈ 50.9 µM) | 4 µg/mL (≈ 12.7 µM) |  | bactericidal | significantly inhibited growth of all strains and reduced CFU | surprisingly effective at inhibiting E. faecium biofilm growth | MIC ([1]; Streptococcus pyogenes ATCC 51878, read-out: MIC): 1 µg/mL (≈ 3.18 µM); MIC ([2]; Staphylococcus epidermidis ATCC 12228, read-out: MIC): 2 µg/mL (≈ 6.36 µM); MIC ([8]; read-out: MIC): 2 µg/mL (≈ 6.36 µM)
